Test results reported in patent US9862985B2, “Identification and susceptibility of microorganisms by species and strain” (SPECIFIC TECHNOLOGIES LLC, priority 2012, dated 2018).

Legend:
S. aureus IS-123 [1] = details: cited from earlier work
S. aureus IS-120 [2] = assay: Colorimetric sensor array antibiotic susceptibility test on solid growth media; assay type: cell-based
From the text: (§1) To detect a microorganism by species and strain, a sample including the microorganism is placed in a container including culture medium and a colorimetric array, and the temporal response of the sensors to the metabolic products of the microorganism is monitored. Susceptibility can be assessed by inoculating a growth medium including a substance (e.g., an antibiotic) with a microorganism and monitoring the temporal response of the sensors while also monitoring the response of a control (e.g., no antibiotic).
(§2) FIG. 8 depicts container 800 configured for use to assess susceptibility of microorganisms. Container 800 includes base 802 and lid 804, with plates 806 positioned in base 802 opposite colorimetric sensor arrays 808 on lid 804. Microorganisms may be placed in contact with growth medium (e.g., a solid growth medium) in plates 806. A substance (e.g., a drug such as an antibiotic) may be added to the growth medium. In one example, rows and columns of plates 802 in container 800 may be used for different microorganisms, different substances (e.g., drugs effective to kill the microorganisms), or different concentrations of substances. After samples are loaded on plates 802, lid 804 is positioned over base 802, such that each colorimetric sensor array 808 is proximate a plate 806. Susceptibility is assessed via temporal response of the sensors in colorimetric sensor arrays. Container 800 can be positioned in an apparatus (e.g., apparatus 700) for automated assessment of susceptibility.
(§3) Susceptibility is indicated by a lack of metabolic products compared to controls (no antibiotic).
(§4) In another susceptibility test, three strains of S. aureus were inoculated onto the solid growth media. […] S. aureus IS-124 was susceptible to both antibiotics in agreement with known susceptibility information that this strain is susceptible to Oxacillin and Vancomycin.

S. aureus IS-123 [3] = assay: as above; assay type: cell-based
From the text: as §1, §2, §3, §4

S. aureus IS-124 = details: concentration not given; cited from earlier work
S. aureus IS-120 [4] = details: cited from earlier work
K. pneumoniae IS-133 = details: cited from earlier work
K. pneumoniae IS-020 = details: cited from earlier work
K. pneumoniae IS-007 [5] = assay: Colorimetric sensor array antibiotic susceptibility test on solid growth media; assay type: cell-based; details: vs control without antibiotic
From the text: as §1
as §2, with “Container 800 can be positioned in an apparatus (e.g., apparatus 700) for automated assessment of susceptibility.” left out

K. pneumoniae IS-007 [6] = details: cited from earlier work
[7] = antibiotic at 2 ug/ml in solid growth media
[8] = antibiotic at 1-2 ug/ml in solid growth media

SMILES: Cc1onc(-c2ccccc2)c1C(=O)N[C@@H]1C(=O)N2[C@@H]1SC(C)(C)[C@@H]2C(=O)O [Oxacillin]
- concentration below which the strain is resistant (known susceptibility information) (S. aureus IS-123 [1]): below 4 ug/ml
- susceptibility or resistance of the strain to the antibiotic (S. aureus IS-120 [2]; [7]): resistance
- susceptibility or resistance of the strain to the antibiotic (S. aureus IS-123 [3]; [7]): resistance
- known susceptibility of the strain to the antibiotic (S. aureus IS-124): susceptible
- concentration below which the strain is resistant (known susceptibility information) (S. aureus IS-120 [4]): below 4 ug/ml

SMILES: CN[C@H](CC(C)C)C(=O)N[C@H]1C(=O)N[C@@H](CC(N)=O)C(=O)N[C@H]2C(=O)N[C@H]3C(=O)N[C@H](C(=O)N[C@H](C(=O)O)c4cc(O)cc(O)c4-c4cc3ccc4O)[C@H](O)c3ccc(c(Cl)c3)Oc3cc2cc(c3O[C@@H]2O[C@H](CO)[C@@H](O)[C@H](O)[C@H]2O[C@H]2C[C@](C)(N)[C@H](O)[C@H](C)O2)Oc2ccc(cc2Cl)[C@H]1O [Vancomycin]
- known susceptibility of the strain to the antibiotic (S. aureus IS-123 [1]; concentration not given): susceptible
- susceptibility or resistance of the strain to the antibiotic (S. aureus IS-120 [2]; [8]): susceptibility
- susceptibility or resistance of the strain to the antibiotic (S. aureus IS-123 [3]; [8]): susceptibility
- known susceptibility of the strain to the antibiotic (S. aureus IS-124): susceptible
- known susceptibility of the strain to the antibiotic (S. aureus IS-120 [4]; concentration not given): susceptible

SMILES: C[C@@H](O)[C@H]1C(=O)N2C(C(=O)O)=C(S[C@@H]3CN[C@H](C(=O)N(C)C)C3)[C@H](C)[C@H]12 [Meropenem]
- concentration below which the strain is resistant (known) (K. pneumoniae IS-133): below 16 ug/ml
- concentration at which the strain is susceptible (known susceptibility information) (K. pneumoniae IS-020): < 0.25 µg/mL
- susceptibility or resistance of the strain to the antibiotic (K. pneumoniae IS-007 [5]; antibiotic at 1 ug/ml in solid growth media): susceptibility

SMILES: CO/N=C(\C(=O)N[C@@H]1C(=O)N2C(C(=O)[O-])=C(C[N+]3(C)CCCC3)CS[C@H]12)c1csc(N)n1 [Cefepime]
- concentration at which the strain is susceptible (known susceptibility information) (K. pneumoniae IS-007 [6]): < 0.25 µg/mL
- concentration below which the strain is resistant (known susceptibility information) (K. pneumoniae IS-007 [6]): below 64 ug/ml
- concentration below which the strain is resistant (known) (K. pneumoniae IS-133): below 64 ug/ml
- concentration at which the strain is susceptible (known susceptibility information) (K. pneumoniae IS-020): < 1 µg/mL
- susceptibility or resistance of the strain to the antibiotic (K. pneumoniae IS-007 [5]; antibiotic at 8 ug/ml in solid growth media): resistance
